Source: the NIST ThermoML archive (doi:10.1016/j.fluid.2017.04.001)
± gives the expanded uncertainty stated by the source.

Assay: wn = mass fraction of the nth substance listed
Conditions: 308.2 K, 101 kPa, Liquid, Cone and plate viscometry

viscosity (w1 = 0.05) [mPa·s] | viscosity (w1 = 0.1) [mPa·s] | viscosity (w1 = 0.2) [mPa·s] | viscosity (w1 = 0.3) [mPa·s] | Structure (SMILES)
0.87 ± 0.02 | 0.98 ± 0.03 | 1.32 ± 0.05 | 1.92 ± 0.09 | C[C@H](N)C(=O)[O-].C[N+](C)(C)CCO [2-hydroxy-N,N,N-trimethylethanaminium L-alaninate] + O
0.85 ± 0.02 | 0.96 ± 0.03 | 1.24 ± 0.04 | 1.7 ± 0.07 | C[N+](C)(C)CCO.NCC(=O)[O-] [2-hydroxy-N,N,N-trimethylethanaminium glycinate] + O
0.89 ± 0.02 | 1.06 ± 0.03 | 1.49 ± 0.06 | 2.2 ± 0.11 | C[N+](C)(C)CCO.O=C([O-])[C@@H]1CCCN1 [2-hydroxy-N,N,N-trimethylethanaminium L-prolinate] + O
